Experimental data taken from publication PMC8151276, “An Integrated Approach toward NanoBRET Tracers for Analysis of GPCR Ligand Engagement” (Molecules, 2021).

Key:
Type in all cases: binding
[1] = molecular target: T1, NPY1R (Homo sapiens, UniProt P25929); assay: NanoBRET screen HiBiT-NPY1R in HEK293
T1 construct: purchased Promega (in-house HiBiT-GPCR construct library, NanoBRET)
T1 sequence (P25929 1-384): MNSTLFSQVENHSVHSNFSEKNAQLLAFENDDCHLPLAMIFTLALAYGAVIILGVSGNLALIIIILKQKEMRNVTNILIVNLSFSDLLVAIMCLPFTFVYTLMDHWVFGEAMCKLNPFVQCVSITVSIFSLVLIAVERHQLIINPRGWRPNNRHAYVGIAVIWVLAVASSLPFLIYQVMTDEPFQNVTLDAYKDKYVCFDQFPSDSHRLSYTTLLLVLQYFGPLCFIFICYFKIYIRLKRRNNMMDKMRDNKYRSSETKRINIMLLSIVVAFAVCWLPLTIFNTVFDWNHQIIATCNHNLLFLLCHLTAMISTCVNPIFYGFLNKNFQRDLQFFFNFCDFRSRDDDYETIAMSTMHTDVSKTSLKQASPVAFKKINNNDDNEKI
Method: (§1) Each tracer candidate was screened across the entire library of HiBiT-GPCR constructs using NanoBRET as the detection modality. As depicted in Figure 4A, the specificity of interactions was evaluated through decrease in BRET due to competitive displacement of a bound tracer by excess parental compound. Each tracer was analyzed for binding to each HiBiT-GPCR fusion in the absence and in the presence of competing parental compound. Briefly, HEK293 cells were transfected with HiBiT-GPCR constructs diluted into promoterless DNA to reduce expression and maximize translocation to the cell surface. Each tracer candidate was then screened at concentrations of 1 μM and 0.1 μM across cells expressing these fusions. Cells were treated for 1.5 h with tracer either alone or in the presence of 20 μM competing parental compound (i.e., control). BRET was measured upon addition of purified LgBiT and subsequent complementation with HiBiT genetically fused to a GPCR. The specificity of interactions was assessed through a decrease in BRET signal due to competitive displacement of the bound tracer. To further gauge the robustness of these interactions, the fold response over the control (i.e., BRETtracer/BRETcontrol) was calculated. We chose a 1.5-fold response, which translates to ≥7-fold signal over noise as the minimal threshold required to score an interaction as positive. […]. Below we highlight the screening results obtained for our exemplary fluorescent tracers based on Clozapine, Amitriptyline and AZD1283.
(§2) HiBiT-GPCR DNA constructs were diluted in 10 mM Tris pH 8 to a final concentration of 0.01 μg/μL, arrayed in 96-well plates and stored at −20 °C. For transfection, HEK293 cells were suspended in Opti-MEM (without phenol red) supplemented with 2% fetal bovine serum (Seradigm) and 100 units/mL penicillin–streptomycin (Gibco) at a final concentration of 220,000 cells/mL and dispensed into white 96-well plates at 90 μL/well. Subsequent transfections and screens were carried using an Agilent Bravo Automated Liquid Handling Platform. First, the 96-well HiBiT DNA arrays were diluted 25-fold in Opti-MEM (without serum or phenol red) to a final concentration of 0.0004 μg/μL and 20 μL of the diluted DNAs were transferred into new 96-well plates. Next, promoterless carrier DNA (1 μg/μL) was diluted 25-fold (0.04 μg/μL) and then dispensed into the diluted arrays at 20 μL/well. Following brief mixing, Viafect transfection reagent (Promega) diluted 16-fold into Opti-MEM was dispensed into the plates at 40 μL/well. After mixing by pipetting, plates were incubated for 10 min on the pipetting station deck. The DNA-transfection reagent complexes were then added to plates containing cells. To facilitate the screen, 10 μL of DNA-transfection reagent complexes were added in duplicates to the top 4 and bottom 4 rows, resulting in two identical 48-well arrays per plate. Plates with transfected cells were incubated for 18–20 h at 37 °C/5% CO2. A screen of each tracer across the entire library using two different concentrations requires duplicate plates of transfected cells. Depending on the number of tracers being screened, transfections can be scaled up using the same ratios. The next day, for each tracer, four 20× screening solutions in tracer dilution buffer (Promega) were prepared: two duplicates at final concentration of 20 μM and two duplicates at a final concentration of 2 μM. A competing unmodified compound was added to one of each duplicate at a final concentration of 400 μM. The four resulting solutions were diluted 4-fold in Opti-MEM without serum or phenol red to generate 5× solutions (5 µM and 0.5 µM tracer +/− 100 μM competing compound). To screen the library, a BioTek MultiFlo FX liquid dispenser was used to dispense 22.5 µL of tracer solution to the top 4 rows and 22.5 µL tracer + competing compound solution to the 4 bottom rows. Plates were briefly mixed on an orbital shaker and incubated for 1.5 h at room temperature. […]

[2] = molecular target: T2, FZD2 (Homo sapiens, UniProt Q14332); assay: NanoBRET screen HiBiT-FZD2 in HEK293
T2 construct: purchased Promega (in-house HiBiT-GPCR construct library, NanoBRET)
Method: as §1, §2

[3] = molecular target: T3, VIPR2 (Homo sapiens, UniProt P41587); assay: NanoBRET screen HiBiT-VIPR2 in HEK293
T3 construct: purchased Promega (in-house HiBiT-GPCR construct library, NanoBRET)
T3 sequence (P41587 24-438): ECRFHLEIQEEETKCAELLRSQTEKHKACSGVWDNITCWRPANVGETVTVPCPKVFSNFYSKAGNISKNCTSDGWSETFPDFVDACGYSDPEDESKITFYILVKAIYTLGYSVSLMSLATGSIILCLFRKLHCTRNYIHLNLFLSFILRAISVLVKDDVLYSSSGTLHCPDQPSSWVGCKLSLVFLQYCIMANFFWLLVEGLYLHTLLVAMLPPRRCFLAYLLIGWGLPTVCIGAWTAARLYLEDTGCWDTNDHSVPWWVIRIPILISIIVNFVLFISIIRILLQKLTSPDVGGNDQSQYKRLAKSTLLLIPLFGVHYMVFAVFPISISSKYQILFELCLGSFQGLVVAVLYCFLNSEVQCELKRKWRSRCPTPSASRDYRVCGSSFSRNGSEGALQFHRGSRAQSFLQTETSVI
Method: as §1, §2

[4] = tracer at 0.1μM, listed as amitriptyline-b-2-NB590
[5] = tracer at 1μM, listed as amitriptyline-b-2-NB590

T2 sequence (Q14332 24-565): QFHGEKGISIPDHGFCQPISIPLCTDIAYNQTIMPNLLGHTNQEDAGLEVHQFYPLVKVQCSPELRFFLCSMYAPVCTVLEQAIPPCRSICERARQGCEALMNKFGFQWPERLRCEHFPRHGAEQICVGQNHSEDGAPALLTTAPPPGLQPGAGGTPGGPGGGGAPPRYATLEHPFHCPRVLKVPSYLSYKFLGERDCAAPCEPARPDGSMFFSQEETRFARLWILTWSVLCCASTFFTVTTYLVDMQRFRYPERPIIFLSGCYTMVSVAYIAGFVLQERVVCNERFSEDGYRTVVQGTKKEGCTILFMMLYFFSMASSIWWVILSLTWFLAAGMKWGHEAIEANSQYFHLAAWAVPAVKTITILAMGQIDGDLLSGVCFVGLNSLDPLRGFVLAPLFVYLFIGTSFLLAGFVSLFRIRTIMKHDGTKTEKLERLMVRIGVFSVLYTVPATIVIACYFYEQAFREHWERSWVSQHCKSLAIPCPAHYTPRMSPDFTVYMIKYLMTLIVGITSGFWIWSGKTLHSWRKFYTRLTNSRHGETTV

Structure (SMILES) | NanoBRET Fold Response ([1]; NPY1R, tracer 0.1μM) | NanoBRET Fold Response ([1]; NPY1R, tracer 1μM) | NanoBRET Fold Response ([2]; FZD2, tracer 0.1μM) | NanoBRET Fold Response ([2]; FZD2, tracer 1μM) | NanoBRET Fold Response ([3]; VIPR2, tracer 0.1μM) | NanoBRET Fold Response ([3]; VIPR2, tracer 1μM) | also measured
O=C(CCc1ccc2n1[B-](F)(F)[N+]1=C(c3ccc[nH]3)C=CC1=C2)NCc1ccc(C(=O)NCCOCCC(=O)N[C@@H]2CC[C@@]3(O)[C@H]4Cc5ccc(O)c6c5[C@@]3(CCN4CC3CC3)[C@H]2O6)cc1 [Naltrexone-3-NB590] | 0.93 | 1.02 | 0.84 | 0.88 | 1.17 | 1.05 | 
CCCn1c(=O)c2[nH]c(-c3ccc(OCC(=O)NCCNC(=O)CCOCCNC(=O)c4ccc(CNC(=O)CCc5ccc6n5[B-](F)(F)[N+]5=C(c7ccc[nH]7)C=CC5=C6)cc4)cc3)nc2n(CCC)c1=O [XAC-3-NB590] | 1.01 | 0.95 | 1.09 | 1.04 | 0.72 | 0.91 | 
CC(C)N(CC[C@H](c1ccccc1)c1cc(CCNC(=O)c2ccc(CNC(=O)CCc3ccc4n3[B-](F)(F)[N+]3=C(c5ccc[nH]5)C=CC3=C4)cc2)ccc1O)C(C)C [Tolterodine-BZ-NB590] | 1.15 | 0.95 | 0.95 | 1.01 | 0.98 | 1.07 | 
COc1ccc2[nH]c(-c3ccc(CNC(=O)CCOCCOCCOCCOCCNC(=O)CCc4ccc5n4[B-](F)(F)[N+]4=C(c6ccc[nH]6)C=CC4=C5)cc3)c(CCNC(C)=O)c2n1 [AzomelatoninICO9-2-NB590] |  |  |  |  |  |  | NanoBRET Fold Response ([1]; 0.1μM tracer): 1.15; NanoBRET Fold Response ([1]; 1μM tracer): 0.94; NanoBRET Fold Response ([2]; 0.1μM tracer): 0.99; NanoBRET Fold Response ([2]; 1μM tracer): 1.11; NanoBRET Fold Response ([3]; 0.1μM tracer): 0.99; NanoBRET Fold Response ([3]; 1μM tracer): 1.12
CN1CCN(C2=Nc3cc(Cl)ccc3N(CC(=O)NCCOCCOCCOCCOCCNC(=O)CCc3ccc4n3[B-](F)(F)[N+]3=C(c5ccc[nH]5)C=CC3=C4)c3ccccc32)CC1 [Clozapine-c-2-NB590] |  |  |  |  |  |  | NanoBRET Fold Response ([1]; NPY1R, 0.1μM tracer): 1.01; NanoBRET Fold Response ([1]; NPY1R, 1μM tracer): 1.01; NanoBRET Fold Response ([2]; FZD2, 0.1μM tracer): 1.01; NanoBRET Fold Response ([2]; FZD2, 1μM tracer): 0.90; NanoBRET Fold Response ([3]; VIPR2, 0.1μM tracer): 0.97; NanoBRET Fold Response ([3]; VIPR2, 1μM tracer): 0.86
COc1ccccc1N1CCN(CCCCN2C(=O)c3ccc(CNC(=O)CCOCCNC(=O)c4ccc(CNC(=O)CCc5ccc6n5[B-](F)(F)[N+]5=C(c7ccc[nH]7)C=CC5=C6)cc4)cc3C2=O)CC1 [NAN-190-3-NB590] | 0.88 | 0.94 | 0.88 | 1.44 | 0.98 | 0.87 | 
Cc1nc2n(c(=O)c1CCN1CCC(c3noc4cc(F)ccc34)CC1)CCCC2OC(=O)NCCOCCOCCOCCOCCNC(=O)CCc1ccc2n1[B-](F)(F)[N+]1=C(c3ccc[nH]3)C=CC1=C2 (centres unmarked) [Risperidone-2-NB590] | 0.88 | 0.99 | 1.01 | 1.03 | 1.03 | 0.91 | 
O=C(CCOCCOCCOCCOCCNC(=O)CCc1ccc2n1[B-](F)(F)[N+]1=C(c3ccc[nH]3)C=CC1=C2)NCCCN1CCN(C2=Nc3ccccc3Oc3ccc(Cl)cc32)CC1 [Loxapine-a-2-NB590] | 0.94 | 1.09 | 1.07 | 1.05 | 1.15 | 0.83 | 
COc1ccccc1N1CCN(CCCCN2C(=O)c3ccc(CNC(=O)CCOCCOCCOCCOCCNC(=O)CCc4ccc5n4[B-](F)(F)[N+]4=C(c6ccc[nH]6)C=CC4=C5)cc3C2=O)CC1 [NAN-190-2-NB590] | 1.02 | 0.94 | 0.97 | 1.02 | 1.05 | 1.03 | 
CC(C)N(CC[C@H](c1ccccc1)c1cc(CCNC(=O)CCOCCOCCOCCOCCNC(=O)CCc2ccc3n2[B-](F)(F)[N+]2=C(c4ccc[nH]4)C=CC2=C3)ccc1O)C(C)C [Tolterodine-2-NB590] | 1.16 | 1.00 | 0.91 | 0.95 | 0.98 | 1.04 | 
N#CN=C(NCCCOc1cccc(CN2CCCCC2)c1)NCCNC(=O)CCOCCOCCOCCOCCNC(=O)CCc1ccc2n1[B-](F)(F)[N+]1=C(c3ccc[nH]3)C=CC1=C2 [Aminopotentidine-2-NB590] | 0.99 | 1.01 | 1.08 | 1.06 | 1.01 | 1.08 | 
CCOC(=O)c1cc(C#N)c(N2CCC(C(=O)NS(=O)(=O)Cc3ccccc3/C=C/C(=O)NCCNC(=O)CCc3ccc4n3[B-](F)(F)[N+]3=C(c5ccc[nH]5)C=CC3=C4)CC2)nc1C [AZD1283-1-NB590] |  |  |  |  |  |  | NanoBRET Fold Response ([1]; NPY1R, 0.1μM): 1.10; NanoBRET Fold Response ([1]; NPY1R, 1μM): 1.04; NanoBRET Fold Response ([2]; FZD2, 0.1μM): 1.04; NanoBRET Fold Response ([2]; FZD2, 1μM): 1.11; NanoBRET Fold Response ([3]; VIPR2, 0.1μM): 1.19; NanoBRET Fold Response ([3]; VIPR2, 1μM): 1.15
CN(C)CCC=C1c2ccccc2CCc2ccc(C(=O)NCCNC(=O)CCOCCOCCOCCOCCNC(=O)CCc3ccc4n3[B-](F)(F)[N+]3=C(c5ccc[nH]5)C=CC3=C4)cc21 [Amitriptyline-b-2-NB590] |  |  |  |  |  |  | NanoBRET Fold Response [1, 4]: 0.90; NanoBRET Fold Response [1, 5]: 1.11; NanoBRET Fold Response [2, 4]: 1.03; NanoBRET Fold Response [2, 5]: 0.94; NanoBRET Fold Response [3, 4]: 1.31; NanoBRET Fold Response [3, 5]: 1.31
CN(CCC=C1c2ccccc2CCc2ccccc21)C(=O)CCOCCOCCOCCOCCNC(=O)CCc1ccc2n1[B-](F)(F)[N+]1=C(c3ccc[nH]3)C=CC1=C2 [Amitriptyline-e-2-NB590] |  |  |  |  |  |  | NanoBRET Fold Response ([2]; tracer at 1μM): 1.03; NanoBRET Fold Response ([3]; tracer at 1μM): 1.06
